Among the data in ChEMBL document CHEMBL4312025, “Synthesis, antiproliferative activity and DNA/RNA-binding properties of mono- and bis-(1,2,3-triazolyl)-appended benzimidazo[1,2-a]quinoline derivatives” (Eur J Med Chem, 2020) are GI50 values, retold here.

One series relates to HCT-116. The series can be described thus: Growth inhibition of human HCT116 cells incubated for 72 hrs by MTT assay. It counts as functional. Particulars: HCT-116, 72 h.
For the next series, the system named is MCF7. Description: Growth inhibition of human MCF7 cells incubated for 72 hrs by MTT assay. The following applies: MCF7, 72 h. It counts as functional.
The test system of a further series is NCI-H460. The series can be described thus: Growth inhibition of human H460 cells incubated for 72 hrs by MTT assay. It is filed as functional. The following applies: NCI-H460, 72 h.
The nature of series [1]: Growth inhibition of human HaCaT cells incubated for 72 hrs by MTT assay. It counts as cell-based.

The structures appear in SMILES notation.

For the molecule `CCCCCCCCCCc1cn(-c2c(C#N)c3nc4ccccc4n3c3ccccc23)nn1`, the GI50 amounted to 35 µM with HCT-116, 28.5 µM in the series on MCF7 and 62 µM in the series with NCI-H460.
On the same counts, the results for `N#Cc1c(-n2cc(C3CC3)nn2)c2ccccc2n2c1nc1ccccc12` are 10 µM, 3 µM and 52 µM.
Regarding `N#Cc1c(-n2cc(CCO)nn2)c2ccccc2n2c1nc1ccccc12`, the GI50 in the series on HCT-116 was found to be 3.5 µM; in the series on MCF7 it was 4.2 µM; with NCI-H460, 13 µM. This molecule showed a concentration for 50% growth inhibition (GI50) at 72 h in series [1] of 3.3 µM.
Consider `CCCCCc1ccc(-c2cn(-c3c(C#N)c4nc5ccccc5n4c4cc(F)ccc34)nn2)cc1`, for which the GI50 was found to be 7 µM in the series on HCT-116, 24 µM with MCF7 and 32 µM in the series on NCI-H460.
With `N#Cc1c(-n2cc(-c3ccc(Br)cc3)nn2)c2ccccc2n2c1nc1ccccc12`, the values for the GI50 in the series on HCT-116, with MCF7 and with NCI-H460 were 25 µM, 31 µM and 59.5 µM, respectively.
As for `N#Cc1c(-n2cc(-c3cc(C(F)(F)F)cc(C(F)(F)F)c3)nn2)c2ccc(F)cc2n2c1nc1ccccc12`, the GI50 with HCT-116 came to 2 µM; in the series on MCF7, 4.5 µM; in the series on NCI-H460, 2 µM. For the same molecule, in series [1], the GI50 at 72 h was found to be 2.1 µM.
Turning to `N#Cc1c(-n2cc(CCO)nn2)c2ccc(-n3cc(CCO)nn3)cc2n2c1nc1ccccc12`, the GI50 is 59 µM with HCT-116, 35 µM in the series with MCF7 and at least 100 µM in the series on NCI-H460.
As for `CCCCCc1ccc(-c2cn(-c3ccc4c(-n5cc(-c6ccc(CCCCC)cc6)nn5)c(C#N)c5nc6ccccc6n5c4c3)nn2)cc1`, the results for the concentration for 50% growth inhibition (GI50) in the series on HCT-116, in the series on MCF7 and in the series with NCI-H460 were 8 µM, 18 µM and 16 µM, respectively.
Consider `CCCCCCCCCCc1cn(-c2ccc3c(-n4cc(CCCCCCCCCC)nn4)c(C#N)c4nc5ccccc5n4c3c2)nn1`, for which the GI50 amounted to 16 µM in the series on HCT-116, 15 µM in the series on MCF7 and 17 µM in the series with NCI-H460.
Consider `N#Cc1c(-n2cc(C3CC3)nn2)c2ccc(-n3cc(C4CC4)nn3)cc2n2c1nc1ccccc12`, for which the GI50 with HCT-116 is 1.6 µM; with MCF7 it was 3 µM; in the series with NCI-H460 it was 3 µM. In addition, in series [1], it took 3.24 µM to inhibit growth by half (GI50 at 72 h).
`N#Cc1c(-n2cc(CNS(=O)(=O)c3ccc(F)cc3)nn2)c2ccc(F)cc2n2c1nc1ccccc12`: the GI50 worked out at 2 µM with HCT-116, 3.9 µM in the series on MCF7 and 3.4 µM with NCI-H460. Moreover, the concentration for 50% growth inhibition (GI50) at 72 h in series [1] worked out at 2.9 µM.
On the same counts, the results for `N#Cc1c(-n2cc(CNS(=O)(=O)c3ccc(F)cc3)nn2)c2ccccc2n2c1nc1ccccc12` are 3.5 µM, 4.2 µM, 13 µM and 2.9 µM.
`COc1cc([C@@H]2c3cc4c(cc3[C@@H](O[C@@H]3O[C@@H]5CO[C@@H](C)O[C@H]5[C@H](O)[C@H]3O)[C@H]3COC(=O)[C@H]23)OCO4)cc(OC)c1O` [ETOPOSIDE]: the figures for the GI50 in the series with HCT-116, in the series with MCF7 and in the series on NCI-H460 were 5 µM, 1 µM and 0.1 µM, respectively.
Regarding `CCCCCCCCCCc1cn(-c2c(C#N)c3nc4ccccc4n3c3cc(F)ccc23)nn1`, the 50% growth inhibitory concentration (GI50) was 3 µM in the series with HCT-116, 5 µM with MCF7 and 7 µM with NCI-H460. In series [1], it took 3.5 µM to inhibit growth by half (GI50 at 72 h).
As to `CCCCCc1ccc(-c2cn(-c3c(C#N)c4nc5ccccc5n4c4ccccc34)nn2)cc1`, the GI50 stood at 34 µM in the series on HCT-116, 35 µM with MCF7 and 32 µM with NCI-H460.
For `N#Cc1c(-n2cc(-c3cc(C(F)(F)F)cc(C(F)(F)F)c3)nn2)c2ccccc2n2c1nc1ccccc12`, the GI50 with HCT-116 was 1 µM; with MCF7, 4 µM; in the series with NCI-H460, 1 µM. Also, in series [1], the GI50 at 72 h is 2.2 µM.
